Entries after “also recorded” stand apart in the source; their conditions may differ. Where two headings read alike, the source gives them in different places.
Key:
[1] = test system: human hepatoma cell line (HepG2); assay: MTT assay, tumor cell proliferation inhibition, HepG2; assay type: cell-based; settings: 72 h, read-out: Tumor inhibition rate (IC50)
Description: (§1) Cell lines to be tested: human hepatoma cell line (HepG2), human lung cancer cell line (A549), human prostate cancer cell line (DU145), human breast cancer cell line (MCF-7), human neuroblastoma cell line (SH-SY5Y), human gastric mucosal cell line (Ges-1) and human embryonic lung fibroblast cell line (CCC-HPF-1) (the cells to be tested were purchased from the Cancer Hospital of Chinese Academy of Medical Sciences).
(§2) The cells in logarithmic growth phase were treated to prepare a single cell suspension, with the cell density adjusted, which was seeded in a 96-well cell culture plate. About 2×10^3 cells were contained in 100 μL per well, and cultured in a cell incubator at 37° C., 5% CO2, and saturated humidity for 24 h. The used medium was aspirated and abandoned, and then 100 μL of the target compound in different concentrations (0.1 μM-100 μM) were added for drug treatment. Five duplicate wells were prepared for each concentration. The background blank well, negative control well and positive control well were also prepared. All the wells were placed in a cell culture incubator at 37° C., 5% CO2, saturated humidity for another 72 h. Then, each well was added with 10 μL of MTT solution (5 mg/mL) and incubated for another 4 h. After that, each well was added with 100 μL of 10% SDS-0.1% NH4Cl (10% SDS purchased from Beijing Mengyimei Biotechnology Co., Ltd.) solution, and incubated at 37° C. for 10 h in the dark. Then, the absorbance OD was measured at 570 nm using a microplate reader at a reference wavelength of 650 nm. Cell proliferation inhibition was calculated according to the following formula: % inhibition=(ODcontrol−ODtreat)(ODcontrol−ODblank)×100. […] Each group was performed at least three times in parallel.

[2] = test system: human neuroblastoma cell line (SH-SY5Y); assay: MTT assay, tumor cell proliferation inhibition, SH-SY5Y; assay type: cell-based; settings: for IC50: SH-SY5Y, 72 h, read-out: Tumor inhibition rate (IC50)
Description: as §1, §2

[3] = test system: human lung cancer cell line (A549); assay: MTT assay, tumor cell proliferation inhibition, A549; assay type: cell-based; settings: A549, MTT, 72 h, read-out: Tumor inhibition rate (IC50)
Description: as §1, §2

[4] = test system: human breast cancer cell line (MCF-7); assay: MTT assay, tumor cell proliferation inhibition, MCF-7; assay type: cell-based; settings: for IC50: MCF-7, MTT, 72 h, read-out: Tumor inhibition rate (IC50)
Description: as §1, §2

[5] = test system: human prostate cancer cell line (DU145); assay: MTT assay, tumor cell proliferation inhibition, DU145; assay type: cell-based; settings: for IC50: DU145, MTT, 72 h, read-out: Tumor inhibition rate (IC50)
Description: as §1, §2

[6] = test system: HepG2 cancer cells; assay: Nude mice bearing HepG2 cancer cells; settings: for weight loss of nude mice (FIG. 6): 40 mg/Kg, single agent; for tumor growth (tumor volume, FIG. 5): nude mice bearing HepG2, single agent
Description: Firstly, a tumor-bearing nude mouse model was established. […] Then, grouping and administration were performed; the nude mice (5 mice in each group) were randomly divided into several groups, such as ultra-pure water control group (blank), positive drug control group, and different dosage treatment groups. The nude mice in each group were administered continuously for 40 days. The nude mice were weighted every other day during the administration. Tumor volumes were measured and calculated.

[7] = test system: A549 cancer cells; assay: Nude mice bearing A549 cancer cells; assay type: in vivo; settings: mouse, in vivo
Description: (§3) In the present invention, the antitumor activity was evaluated by intraperitoneal injection to nude mice bearing different tumors, for compounds 3 (N-(4-((4-nitrophenyl)methoxy)phenyl)-6,7-(benzo-9-crown-3)-4-quinazolinamine) and 23 (compounds No. are shown in Table 1) (N-(3-((4-trifluoromethylphenyl)methoxy)phenyl)-6,7-(benzo-12-crown-4)-4-quinazolinamine) of formula (I).
(§4) Firstly, a tumor-bearing nude mouse model was established. 0.2-1 mL of cell suspension was inoculated subcutaneously into the left lower limb of nude mice, and the drug was administered when the tumor volume reached about 100 mm^3. Then, grouping and administration were performed; the nude mice (5 mice in each group) were randomly divided into several groups, such as ultra-pure water control group (blank), positive drug control group, and different dosage treatment groups. The nude mice in each group were administered continuously for 40 days. The nude mice were weighted every other day during the administration. Tumor volumes were measured and calculated. Then tumor growth curve, tumor inhibition curve (see FIGS. 1 and 3) and weight change curve (see FIGS. 2 and 4) were drawn. […]. Among those, docetaxel suffers from high cumulative neurotoxic toxicity and drug resistance although it has the best effect. Comparing to docetaxel, compound 23 has a much lower toxicity and drug resistance, and thus has a great development prospect. […]

[8] = test system: DU145 cancer cells; assay: Nude mice bearing DU145 cancer cells; assay type: in vivo; settings: for tumor growth: FIG. 3
Description: as §3
as §4, with “The nude mice in each group were administered continuously for 40 days.” left out

| SMILES | IC50 [1] | IC50 [2] | IC50 [3] | IC50 [4] | IC50 [5] | also measured |
| --- | --- | --- | --- | --- | --- | --- |
| N#Cc1cc(Nc2ncnc3cc4c(cc23)OCCOCCO4)ccc1OCc1cccc(F)c1 [Compound 36, 2-(3-Fluoro-benzyloxy)-5-(7,8,10,11-tetrahydro-6,9,12-trioxa-1,3-diaza-cyclonona[b]naphthalen-4-ylamino)-benzonitrile] |  |  |  |  |  | IC50 ([1]; Homo sapiens): > 100 µM; IC50 ([2]; Homo sapiens): > 100 µM; IC50 ([3]; Homo sapiens): 3.52 µM; IC50 ([4]; Homo sapiens, MCF7): > 100 µM; IC50 ([5]; Homo sapiens, DU-145): 0.31 µM; melting point: 220 to 222 °C |
| CNC(=O)c1cc(Oc2ccc(NC(=O)Nc3ccc(Cl)c(C(F)(F)F)c3)c(F)c2)ccn1 [regorafenib] |  |  |  |  |  | weight loss of nude mice (FIG. 6) [6]: weight loss of nude mice is similar; tumor growth (tumor volume, FIG. 5) [6]: can slow down the tumor growth with increasing drug dose |
| COc1cc2ncnc(Nc3ccc(F)c(Cl)c3)c2cc1OCCCN1CCOCC1 [Gefitinib, reference compound] |  |  |  |  |  | toxicity / body weight of nude mice (FIG. 2) [7]: increased |
| CNC(=O)c1cc(Oc2ccc(NC(=O)Nc3ccc(Cl)c(C(F)(F)F)c3)cc2)ccn1 [sorafenib] |  |  |  |  |  | weight loss of nude mice (FIG. 6) [6]: weight loss of nude mice is relatively slow; tumor growth (tumor volume, FIG. 5) [6]: can slow down the tumor growth with increasing drug dose |
| O=[N+]([O-])c1ccc(COc2ccccc2Nc2ncnc3cc4c(cc23)OCCOCCO4)cc1 [Compound 1, N-(2-((4-nitrophenyl)methoxy)phenyl)-6,7-(benzo-9-crown-3)-4-quinazolinamine] |  |  |  |  |  | IC50 ([1]; Homo sapiens): 50.2 µM; IC50 ([2]; Homo sapiens): > 100 µM; IC50 ([3]; Homo sapiens): 28.4 µM; IC50 ([4]; Homo sapiens, MCF7): > 100 µM; IC50 ([5]; Homo sapiens, DU-145): 85.6 µM; melting point: 192 to 193 °C |
| N#Cc1ccc(COc2ccc(Nc3ncnc4cc5c(cc34)OCCOCCOCCO5)cc2)cc1 [Compound 11, N-(4-((4-cyanophenyl)methoxy)phenyl)-6,7-(benzo-12-crown-4)-4-quinazolinamine] | 67.4 µM | 9.89 µM | 81.3 µM | > 100 µM | > 100 µM | inhibitory effect on SH-SY5Y (in words) ([2]; summary of Table 1): strong specific inhibitory effect |
| FC(F)(F)c1ccc(COc2ccccc2Nc2ncnc3cc4c(cc23)OCCOCCOCCOCCO4)cc1 [Compound 33, N-(2-((4-trifluoromethylphenyl)methoxy)phenyl)-6,7-(benzo-15-crown-5)-4-quinazolinamine] | > 100 µM | > 100 µM | 30.7 µM | 28.5 µM | > 100 µM |  |
| O=[N+]([O-])c1ccc(COc2ccc(Nc3ncnc4cc5c(cc34)OCCOCCOCCOCCO5)cc2)cc1 [Compound 32, N-(4-((4-nitrophenyl)methoxy)phenyl)-6,7-(benzo-15-crown-5)-4-quinazolinamine] | > 100 µM | > 100 µM | > 100 µM | > 100 µM | > 100 µM |  |
| FC(F)(F)c1ccc(COc2cccc(Nc3ncnc4cc5c(cc34)OCCOCCOCCO5)c2)cc1 [Compound 23, N-(3-((4-trifluoromethylphenyl)methoxy)phenyl)-6,7-(benzo-12-crown-4)-4-quinazolinamine] |  |  |  |  |  | IC50 ([1]; Homo sapiens): 34 µM; IC50 ([2]; Homo sapiens): 20 µM; IC50 ([3]; Homo sapiens): 24.9 µM; IC50 ([4]; Homo sapiens, MCF7): 17.6 µM; IC50 ([5]; Homo sapiens, DU-145): 2.76 µM; inhibitory effect on DU145 (in words) ([5]; MTT, summary of Table 1): strong specific inhibitory effect; tumor growth ([8]; 80 mg/Kg): no longer grown almost; body weight compared with blank control ([8]; 80 mg/Kg, after treating for 50 days): even heavier than that of the blank control group; tumor growth ([8]; 160 mg/Kg): no longer grown almost; also recorded: completely inhibited; toxicity ([8]; 160 mg/kg, FIG. 4): no significant toxicity was observed; toxicity / body weight of nude mice (FIG. 4) ([8]; nude mice bearing DU145): very low; antitumor effect (tumor volume, FIG. 3) ([8]; nude mice bearing DU145, intraperitoneal injection, three doses): significant antitumor effect; also recorded: high inhibitory effect |

More lines, main results first:

| IC50 [1] | IC50 [2] | IC50 [3] | IC50 [4] | IC50 [5] | SMILES | also measured |
| --- | --- | --- | --- | --- | --- | --- |
| > 100 µM | 20.7 µM | > 100 µM | 8.31 µM | > 100 µM | Fc1ccc(COc2ccc(Nc3ncnc4cc5c(cc34)OCCOCCOCCO5)cc2)cc1 [Compound 17, N-(4-((p-fluorophenyl)methoxy)phenyl)-6,7-(benzo-12-crown-4)-4-quinazolinamine] | inhibitory effect on MCF-7 (in words) ([4]; MTT, summary of Table 1): strong specific inhibitory effect |
| 55.5 µM | 39.3 µM | 43.9 µM | > 100 µM | > 100 µM | c1ccc(COc2cccc(Nc3ncnc4cc5c(cc34)OCCOCCOCCOCCO5)c2)cc1 [Compound 28, N-(3-((phenyl)methoxy)phenyl)-6,7-(benzo-15-crown-5)-4-quinazolinamine] |  |
| 31.3 µM | > 100 µM | > 100 µM | > 100 µM | > 100 µM | c1ccc(OCc2ccncc2)c(Nc2ncnc3cc4c(cc23)OCCOCCO4)c1 [Compound 12, N-(2-((4-pyridyl)methoxy)phenyl)-6,7-(benzo-9-crown-3)-4-quinazolinamine] |  |
| 55.5 µM | 39.3 µM | 43.9 µM | > 100 µM | > 100 µM | Fc1ccc(COc2ccc(Nc3ncnc4cc5c(cc34)OCCOCCOCCOCCO5)cc2)cc1 [Compound 26, N-(4-((p-fluorophenyl)methoxy)phenyl)-6,7-(benzo-15-crown-5)-4-quinazolinamine] |  |

Source: patent US11504371B2, “Quinazolines compound, preparation method therefor and application thereof” (Beijing Normal University, priority 2017, dated 2022)
